Results taken from publication PMC11672400, “Synthesis, Spectroscopic Characterization, Structural Analysis, and Evaluation of Anti-Tumor, Antimicrobial, and Antibiofilm Activities of Halogenoaminopyrazoles Derivatives” (Antibiotics, 2024).
Values after ≈ are worked out from the molar mass of the structure shown. Like-named read-outs stand apart in the source and are kept apart here.

What was measured:
[1] = test system: NCTC (clone 929) mouse fibroblast cells; assay: MTT cell viability / cytotoxicity on normal fibroblasts; type: cell-based; conditions: Mus musculus, NCTC clone 929; NCTC normal fibroblasts, MTT, 48 h
Excerpt: (§1) Merck chemicals were utilized.
(§2) Untreated cells were used as control, considered 100% viable cells.

[2] = as above; type: cell-based, mouse; conditions: mouse
Excerpt: as §1, §2

[3] = test system: HEp-2 epithelial tumor cells; assay: MTT cell viability / anti-tumor activity; conditions: Homo sapiens; for viability at 3.1 µg/mL / viability at 6.25 µg/mL / viability at 12.5 µg/mL / viability at 25 µg/mL / viability at 50 µg/mL: read-out: Cell viability on Hep2 cells (%)
Method: The cytotoxicity of the halogenoaminopyrazole derivatives 4a–f and 5a–e was tested on L929 mouse fibroblast cells, and their anti-tumor activity was evaluated on the human carcinoma epithelial cell line HEp-2. The experiments were performed in a concentration range of 3.1–50 μg/mL.
The MTT test was used, 3-(4,5-dimethylthiazol-2-yl)-2,5-diphenyl tetrazolium bromide), which is reduced to insoluble purple-blue formazan crystals precipitated by living cells. Cell viability assessed using the MTT assay reflects the activity of mitochondrial enzymes in treated cells compared to the control culture of untreated cells.
To assess the biocompatibility of the substances, a stable mouse fibroblast cell line, NCTC (clone 929), was grown in minimal essential medium (MEM) with 10% fetal bovine serum (FBS) and 2 mM L-glutamine, along with 100 U/mL penicillin, 100 µg/mL streptomycin, and 500 µg/mL neomycin. The concentration of the compounds used was 0.06 g/2 mL DMSO.
In cytotoxicity experiments, compound solutions were utilized at concentrations of 3.1 μg/mL, 6.25 μg/mL, 12.5 μg/mL, 25 μg/mL, and 50 μg/mL. The NCTC cell suspension was placed into 96-well culture plates with a concentration of 4 × 10^4 cells/mL and incubated at 37 °C for 24 h in a 5% CO2 humidified atmosphere. The compounds under study were placed in sets of three at varying concentrations ranging from 3.1 μg/mL to 50 μg/mL in every well, and the plates were then kept under standard conditions for 48 h. Cell viability was determined through the utilization of the MTT assay. Next, the MTT solution was removed, then isopropanol was added to solubilize the formazan crystals. The colored solution was then measured for absorbance at 570 nm using a Berthold Technologies, LB 940 microplate reader (Bad Wildbad, Germany). The outcomes were determined based on Formula (1) while considering that the recorded optical density is directly related to the number of viable cells in the cell culture being examined [35, 36]. % cell viability = (OD sample/OD control) × 100%(1)
For each tested compound, a graph representing percentage cell viability versus concentrations (in the range 3.1–50 µg/mL) was obtained. Then, the IC50 value was calculated by using ED50 plus V1.0 software.

[4] = test system: Staphylococcus aureus ATCC25923; assay: Antibiofilm assay (crystal violet), MBIC; type: cell-based; conditions: 24 h, 37 °C; for minimal effective concentration: Staphylococcus aureus, ATCC25923, read-out: Minimum biofilm inhibition concentration (MBIC), Staphylococcus aureus ATCC25923
Method: (§3) Microorganisms were grown in 96-well plates filled with nutrient broth along with test substances, followed by incubation at 37 °C for 24 h. Plates were cleaned and rinsed thrice using SPW solution (sterile physiological water). After that, the attached cells were treated with 110 μL of methanol for 5 min, and then the methanol was removed by turning it upside down. […] Once stained, the solution was removed, and the plates were washed with running tap water. […] The antimicrobial/antibiofilm activity of the compounds was evaluated against two antibiotics, commercial formulations of metronidazole and nitrofurantoin.

[5] = test system: Pseudomonas aeruginosa ATCC27853; assay: Antibiofilm assay (crystal violet), MBIC; type: cell-based; conditions: 37 °C; for minimal effective concentration: Pseudomonas aeruginosa, ATCC27853, 24 h, read-out: Minimum biofilm inhibition concentration (MBIC), Pseudomonas aeruginosa ATCC27853
Method: as §3

[6] = test system: Staphylococcus aureus ATCC25923; assay: Qualitative evaluation of antimicrobial activity (inhibition zone, spot on agar); type: cell-based; parameters: key: (+) inhibited bacterial growth; (-) did not inhibit bacterial growth; conditions: 0.06 g/2 mL DMSO, 5 µL spot
Method: (§4) For testing the antimicrobial/antibiofilm activity, the concentration of the studied compounds was identical to 0.06 g/2 mL DMSO. 0.5 Standard McFarland suspension was used, which was inoculated onto Mueller Hinton agar plates, (Remel, Lenexa, KS, USA), 5 µL of each compound was spotted and incubated overnight at 37 °C. Antimicrobial activity was observed as zones of inhibition formed around the spot.

[7] = test system: Enterococcus faecalis ATCC29212; assay: as above; type: cell-based; parameters: key: (+) inhibited bacterial growth; (-) did not inhibit bacterial growth; conditions: 0.06 g/2 mL DMSO, 5 µL spot
Method: as §4

[8] = test system: Escherichia coli ATCC25922; assay: as above; type: cell-based; parameters: key: (+) inhibited bacterial growth; (-) did not inhibit bacterial growth; conditions: 0.06 g/2 mL DMSO, 5 µL spot
Method: as §4

[9] = test system: Pseudomonas aeruginosa ATCC27853; assay: as above; type: cell-based; parameters: key: (+) inhibited bacterial growth; (-) did not inhibit bacterial growth; conditions: 0.06 g/2 mL DMSO, 5 µL spot
Method: as §4

[10] = test system: Staphylococcus aureus ATCC25923; assay: MIC by serial microdilution in liquid medium; type: cell-based; conditions: 24 h, 37 °C; for MIC: Staphylococcus aureus, ATCC25923, read-out: Minimum inhibitory concentration, Staphylococcus aureus ATCC25923
Method: (§5) The minimum inhibitory concentrations (MIC) were determined by the serial microdilution method in a liquid medium (Tryptone Soy Broth), on 96-well plates. Serial binary dilutions of the compound stock solution (10 mg/mL in DMSO) were carried out in 90 µL of culture medium and 10 µL of 10^6 CFU/mL (Colony Forming Units) microbial suspension. Each test included a positive control (wells with culture medium and microbial suspension) and a negative control for medium sterility. After incubation at 37 °C for 24 h the plates were visually examined, and optical density was measured at 620 nm. […] The MIC value (µg/mL) for the chemical compound was determined by the concentration in the final well without bacterial growth. All experiments were performed in triplicate.

[11] = test system: Enterococcus faecalis ATCC29212; assay: MIC by serial microdilution in liquid medium; type: cell-based; conditions: 24 h, 37 °C; for MIC: Enterococcus faecalis, ATCC29212, read-out: Minimum inhibitory concentration, Enterococcus faecalis ATCC29212
Method: as §5

[12] = test system: Escherichia coli ATCC25922; assay: MIC by serial microdilution in liquid medium; type: cell-based; conditions: 24 h, 37 °C; for MIC: Escherichia coli, ATCC25922, read-out: Minimum inhibitory concentration, Escherichia coli ATCC25922
Method: as §5

[13] = test system: Pseudomonas aeruginosa ATCC27853; assay: MIC by serial microdilution in liquid medium; type: cell-based; conditions: 24 h, 37 °C; for MIC: Pseudomonas aeruginosa, ATCC27853, read-out: Minimum inhibitory concentration, Pseudomonas aeruginosa ATCC27853
Method: as §5

[14] = test system: Enterococcus faecalis ATCC29212; assay: Antibiofilm assay (crystal violet), MBIC; type: cell-based; conditions: Enterococcus faecalis, ATCC29212, 24 h, 37 °C, read-out: Minimum biofilm inhibition concentration (MBIC), Enterococcus faecalis ATCC29212
Method: as §3

[15] = test system: Escherichia coli ATCC25922; assay: Antibiofilm assay (crystal violet), MBIC; type: cell-based; conditions: Escherichia coli, ATCC25922, 24 h, 37 °C, read-out: Minimum biofilm inhibition concentration (MBIC), Escherichia coli ATCC25922
Method: as §3

[16] = read-out: Cell viability on NCTC cells (%)
[17] = NCTC clone 929 (L929) mouse fibroblast cells

Structure (SMILES) | IC50 [1] | viability at 3.1 µg/mL ([3]; HEp-2, 24 h) | viability at 6.25 µg/mL ([3]; HEp-2, 24 h) | viability at 12.5 µg/mL ([3]; HEp-2, 24 h) | viability at 25 µg/mL ([3]; HEp-2, 24 h) | viability at 50 µg/mL ([3]; HEp-2, 24 h) | viability at 3.1 µg/mL ([3]; HEp-2, 48 h) | viability at 6.25 µg/mL ([3]; HEp-2, 48 h) | viability at 12.5 µg/mL ([3]; HEp-2, 48 h) | viability at 25 µg/mL ([3]; HEp-2, 48 h) | viability at 50 µg/mL ([3]; HEp-2, 48 h) | minimal effective concentration [4] | minimal effective concentration [5] | viability at 24 h, 3.1 µg/mL [2, 17] | viability at 48 h, 3.1 µg/mL [2, 17] | viability at 24 h, 6.25 µg/mL [2, 17] | viability at 48 h, 6.25 µg/mL [2, 17] | viability at 24 h, 12.5 µg/mL [2, 17] | viability at 48 h, 12.5 µg/mL [2, 17] | viability at 24 h, 25 µg/mL [2, 17] | other results
C[C@@H]1CC[C@@]2(OC1)O[C@H]1C[C@H]3[C@@H]4CC=C5C[C@@H](O[C@@H]6O[C@H](CO)[C@@H](O[C@@H]7O[C@@H](C)[C@H](O)[C@@H](O)[C@H]7O)[C@H](O)[C@H]6O[C@@H]6O[C@@H](C)[C@H](O)[C@@H](O)[C@H]6O)CC[C@]5(C)[C@H]4CC[C@]3(C)[C@H]1[C@@H]2C [dioscin, reference compound] | 15.8 ± 2.19 µg/mL (≈ 18.2 µM) | 97.09 ± 0.43% | 76.7 ± 2.01% | 58.92 ± 0.3% | 13.9 ± 0.18% | 11.5 ± 0.14% | 95.99 ± 0.53% | 62 ± 1.78% | 38 ± 2.09% | 7.49 ± 1.32% | 7.27 ± 1.14% |  |  |  |  |  |  |  |  |  | viability at 24 h, 3.1 µg/mL [2, 16]: 94.3 ± 2.49%; viability at 48 h, 3.1 µg/mL [2, 16]: 94.2 ± 1.66%; viability at 24 h, 6.25 µg/mL [2, 16]: 93 ± 3.24%; viability at 48 h, 6.25 µg/mL [2, 16]: 72.6 ± 1.67%; viability at 24 h, 12.5 µg/mL [2, 16]: 38.7 ± 2.55%; viability at 48 h, 12.5 µg/mL [2, 16]: 37 ± 2.55%; viability at 24 h, 25 µg/mL [2, 16]: 14.9 ± 2.63%; viability at 48 h, 25 µg/mL [2, 16]: 8.55 ± 1.26%; viability at 24 h, 50 µg/mL [2, 16]: 13.7 ± 2.06%; viability at 48 h, 50 µg/mL [2, 16]: 7.14 ± 1.28%
Cc1nn(CNc2ccc(Cl)cc2)c(C)c1[N+](=O)[O-] [4b, N-[(3,5-dimetyl-4-nitro-1H-pyrazol-1-yl)-methyl]-4-chloroaniline] | 36.1 ± 1.23 µg/mL (≈ 129 µM) | 116 ± 2.48% | 105 ± 2.91% | 100 ± 2.49% | 88.8 ± 1.65% | 65.6 ± 2.78% | 112.6 ± 1.03% | 104 ± 1.08% | 98 ± 1.42% | 79.5 ± 1.49% | 46.8 ± 3.35% | 460 µg/mL | 460 µg/mL | 100 ± 1.63% | 95.08 ± 0.82% | 101 ± 3.31% | 93 ± 1.35% | 98.6 ± 2.62% | 89.7 ± 3.15% | 96.3 ± 2.22% | Minimum biofilm inhibition concentration (MBIC), Staphylococcus aureus ATCC25923 [4]: 460 ± 0.01 µg/mL; Minimum biofilm inhibition concentration (MBIC), Pseudomonas aeruginosa ATCC27853 ([5]; 24 h): 460 ± 0.02 µg/mL; viability at 48 h, 25 µg/mL [2, 17]: 61.9 ± 1.38%; viability at 24 h, 50 µg/mL [2, 17]: 64.9 ± 0.94%; viability at 48 h, 50 µg/mL [2, 17]: 31.6 ± 1.27%; melting point: 99 to 100 °C; Qualitative antimicrobial activity, Staphylococcus aureus ATCC25923 [6]: +; Qualitative antimicrobial activity, Enterococcus faecalis ATCC29212 [7]: +; Qualitative antimicrobial activity, Escherichia coli ATCC25922 [8]: +; Qualitative antimicrobial activity, Pseudomonas aeruginosa ATCC27853 [9]: +; IC50 ([3]; HEp-2, 48 h, read-out: IC50 µg/mL on HEp-2 Cells 48 h, HEp-2 epithelial tumor cells, MTT, 48 h): 47.3 ± 3.38 µg/mL (≈ 169 µM); Minimum inhibitory concentration, Staphylococcus aureus ATCC25923 [10]: 460 ± 0.02 µg/mL (≈ 1640 µM); MIC [10]: 460 µg/mL (≈ 1640 µM); Minimum inhibitory concentration, Enterococcus faecalis ATCC29212 [11]: 460 ± 0.02 µg/mL (≈ 1640 µM); MIC [11]: 460 µg/mL (≈ 1640 µM); Minimum inhibitory concentration, Escherichia coli ATCC25922 [12]: 460 ± 0.05 µg/mL (≈ 1640 µM); MIC [12]: 460 µg/mL (≈ 1640 µM); Minimum inhibitory concentration, Pseudomonas aeruginosa ATCC27853 [13]: 460 ± 0.01 µg/mL (≈ 1640 µM); MIC [13]: 460 µg/mL (≈ 1640 µM)
Cc1nn(CNc2ccc(Br)cc2)c(C)c1[N+](=O)[O-] [4c, N-[(3,5-dimetyl-4-nitro-1H-pyrazol-1-yl)-methyl]-4-bromoaniline] |  | 101 ± 2.04% | 103 ± 2.31% | 100 ± 3.15% | 98.7 ± 1.83% | 92.64 ± 0.9% | 116 ± 2.55% | 104.2 ± 0.88% | 99.6 ± 2.32% | 82.6 ± 3.28% | 70.2 ± 1.91% | 930 ± 0.06 µg/mL | 930 ± 0.52 µg/mL | 99.2 ± 0.97% | 99.67 ± 0.71% | 97.1 ± 3.04% | 98.8 ± 1.92% | 95.6 ± 0.62% | 97.2 ± 3.5% | 95.5 ± 2.14% | minimal effective concentration [14]: 930 ± 1.09 µg/mL; minimal effective concentration [15]: 930 ± 0.11 µg/mL; viability at 48 h, 25 µg/mL [2, 17]: 95.6 ± 2.93%; viability at 24 h, 50 µg/mL [2, 17]: 91.1 ± 3.04%; viability at 48 h, 50 µg/mL [2, 17]: 81.5 ± 3.26%; melting point: 118 to 120 °C; Qualitative antimicrobial activity, Staphylococcus aureus ATCC25923 [6]: -; Qualitative antimicrobial activity, Enterococcus faecalis ATCC29212 [7]: -; Qualitative antimicrobial activity, Escherichia coli ATCC25922 [8]: -; Qualitative antimicrobial activity, Pseudomonas aeruginosa ATCC27853 [9]: -; MIC [10]: 930 ± 0.04 µg/mL (≈ 2860 µM); MIC [11]: 930 ± 0.03 µg/mL (≈ 2860 µM); MIC [12]: 930 ± 1.05 µg/mL (≈ 2860 µM); MIC [13]: 930 ± 1.08 µg/mL (≈ 2860 µM)
